{
  "source": "patent US20240116996A1",
  "about": "“METHODS AND COMPOSITIONS FOR TREATING A CORONAVIRUS INFECTION” (Recovery Therapeutics, Inc., priority 2021, published 2024)",
  "key": {"HAP1 cells": {"system": "HAP1 cells", "conditions": "increasing concentrations of FGF-2 up to 1 ng/mL, XTT"}, "[1]": {"system": "SARS-CoV-2 (strain USA-WA1/2020)", "format": "in vivo, Golden Syrian hamsters", "conditions": "lungs on D6"}, "[2]": {"system": "human coronavirus strain 229E (HCoV-229E)", "format": "cell-based", "conditions": "FGF-2 1 ng/mL to 0.003 ng/mL, XTT"}},
  "note": "Read-outs that look alike come from different tables or passages of the source.",
  "data": [
    {"substance": "FGF-2: Recombinant human FGF-2 (SEQ ID NO. 1, 18 kDa low molecular weight isoform); Sigma-Aldrich F0291 in Example 1, PeproTech 100-18B in Example 2", "values": [
      {"measurement": "toxicity", "setting": "HAP1 cells", "value": "without toxicity"},
      {"measurement": "reduction in viral load compared to vehicle-treated animals", "setting": "[1]; 20 μg FGF-2 intravenous on D-1, D0, D1, D2", "value": 51, "unit": "%"},
      {"measurement": "reduction in viral load compared to vehicle-treated animals", "setting": "[1]; 50 μg FGF-2 intravenous on D-1, D0, D1, D2", "value": 73, "unit": "%"},
      {"measurement": "EC50 (dose-dependent enhancement of cell survival)", "setting": "[2]", "value": 0.08, "unit": "ng/mL"}
    ]}
  ]
}
